Source: US10828299B2 (Gilead Sciences, Inc., priority 2013, dated 2020)

Tested on: human hepatocytes
Test: Human Hepatocyte Stability Assay
Assay type: in vitro ADME
Details: comparison table with known compounds; head prints (units)
Experimental: The human […] stability of the compounds as predicted hepatocyte clearance in L/hr/kg was assessed. Compounds to be tested were diluted to 200 μM (4 μl of 10 mM DMSO stock into 196 μl ACN:H2O (50:50). Propranolol was used as a positive control, and buffer only without hepatocytes as 0% control. These were further diluted 4 μl with 891 μl KHB buffer (InVitroGRO catalog number Z99074) to provide 2× dosing solution. To each well of 24 well plate, 250 μl of the 2× dosing solution was added to each well with 250 μl of hepatocytes cells (1×10^6 viable cells/ml per well) or KHB for control samples to achieve a final compound concentration of 1 μM during incubation. The final solvent concentration was 0.01% DMSO and 0.25% ACN. The culture plate was placed on a rocker and incubated at 37° C., 5% CO2. Samples were collected at time 0, 1, 3, and 6 hours. The loss of parent compound was determined using LC-MS methods against a standard curve.

Compound	Hheps CL [mL/min/kg]
Nc1cncc(-c2cn3ccnc3c(Nc3ccc(N4CCN(C5COC5)CC4)c(OCCO)c3)n2)n1 [Ex.-5, 2-(5-((6-(6-aminopyrazin-2-yl)imidazo[1,2-a]pyrazin-8-yl)amino)-2-(4-(oxetan-3-yl)piperazin-1-yl)phenoxy)ethanol]	1.2
Nc1cncc(-c2cn3ccnc3c(Nc3ccc(N4CCO[C@@H](CO)C4)cc3)n2)n1 [Ex.-3, (R)-(4-(4-((6-(6-aminopyrazin-2-yl)imidazo[1,2-a]pyrazin-8-yl)amino)phenyl)morpholin-2-yl)methanol]	1.5
COc1ccc(Nc2nc(-c3cccc(N)c3)cn3ccnc23)cc1OC [6-(3-aminophenyl)-N-(3,4-dimethoxyphenyl)imidazo[1,2-a]pyrazin-8-amine, reference compound]	4
COc1ccc(Nc2nc(-c3ccc(N)nc3)cn3ccnc23)cc1OC [6-(6-aminopyridin-3-yl)-N-(3,4-dimethoxyphenyl)imidazo[1,2-a]pyrazin-8-amine, reference compound]	15
Cc1ncc(-c2cn3ccnc3c(Nc3ccc(N4CCN(C5COC5)CC4)c(OCCO)c3)n2)nc1N [Ex.-7, 2-(5-((6-(6-amino-5-methylpyrazin-2-yl)imidazo[1,2-a]pyrazin-8-yl)amino)-2-(4-(oxetan-3-yl)piperazin-1-yl)phenoxy)ethanol]	0.83

Results, then the compound that gave them:

Hheps CL [mL/min/kg]	Compound
0.917	Nc1cncc(-c2cn3ccnc3c(Nc3ccc(N4CCN(C5COC5)CC4)cc3)n2)n1 [Ex.-2, 6-(6-aminopyrazin-2-yl)-N-(4-(4-(oxetan-3-yl)piperazin-1-yl)phenyl)imidazo[1,2-a]pyrazin-8-amine]
1.3	Nc1cncc(-c2cn3ccnc3c(Nc3ccc(N4CCN(CC(CO)CO)CC4)cc3)n2)n1 [Ex.-6, 2-((4-(4-((6-(6-aminopyrazin-2-yl)imidazo[1,2-a]pyrazin-8-yl)amino)phenyl)piperazin-1-yl)methyl)propane-1,3-diol]
13.3	Cc1ncc(-c2cn3ccnc3c(Nc3ccc(N4CCOCC4)cc3)n2)cc1N [6-(5-amino-6-methylpyridin-3-yl)-N-(4-morpholinophenyl)imidazo[1,2-a]pyrazin-8-amine, reference compound]
1.3	Cc1c(-c2cncc(N)n2)nc(Nc2ccc(N3CCN(C4COC4)CC3)cc2)c2nccn12 [Ex.-4, 6-(6-aminopyrazin-2-yl)-5-methyl-N-(4-(4-(oxetan-3-yl)piperazin-1-yl)phenyl)imidazo[1,2-a]pyrazin-8-amine]
2	Cc1ncc(-c2cn3ccnc3c(Nc3ccc(N4CCN(C5COC5)CC4)cc3)n2)nc1N [Ex.-1, 6-(6-amino-5-methylpyrazin-2-yl)-N-(4-(4-(oxetan-3-yl)piperazin-1-yl)phenyl)imidazo[1,2-a]pyrazin-8-amine]
11.3	Nc1cncc(-c2cn3ccnc3c(Nc3ccc(N4CCOCC4)cc3)n2)c1 [6-(5-aminopyridin-3-yl)-N-(4-morpholinophenyl)imidazo[1,2-a]pyrazin-8-amine, reference compound]
